Measurements as given in US10253049B2, “Boronic acid derivatives” (MERCK PATENT GMBH, priority 2014, dated 2019).

Columns and labels:
[1] = target: LMP7 subunit of the immunoproteasome (Homo sapiens, UniProt P28062); settings: Singh et al., Br. J. Hematology 152(2): 155-163; cited from earlier work
[2] = target: Beta5 (purified human constitutive proteasome) (Homo sapiens, UniProt P28074); assay: Determination of Beta5 activity (fluorescence intensity assay, Suc-LLVY-AMC); assay type: biochemical; settings: incubation for 20 minutes
Experimental: Determination of Beta5 Activity
Measurement of Beta5 inhibition is performed in 384 well format based on fluorescence intensity assay.
(§1) Purified human constitutive proteasome (1.25 nM) and serial diluted compounds in DMSO (range of concentrations from 30 μM to 15 pM) or controls are incubated for 20 minutes or 120 minutes (long incubation) at 25° C. in assay buffer containing 50 mM Tris pH 7.4, 0.03% SDS, 1 mM EDTA and 1% DMSO. The reaction is initiated by the addition of the fluorogenic peptide substrate, Suc-LLVY-AMC (Bachem I-1395), at a concentration of 40 μM. After 60 minutes of incubation at 37° C., fluorescence intensity is measured at λex=350 nm and λem=450 nm with a fluorescence reader (Perkin Elmer Envision reader or equivalent).
(§2) Unless indicated otherwise the results are obtained after incubation for 20 minutes.

[3] = target: LMP7 (purified human immunoproteasome) (Homo sapiens, UniProt P28062); assay: Determination of LMP7 activity (fluorescence intensity assay, Suc-LLVY-AMC); assay type: biochemical; settings: incubation for 20 minutes
Experimental: Determination of LMP7 Activity
Measurement of LMP7 inhibition is performed in 384 well format based on fluorescence intensity assay.
as §1, with “immunoproteasome (0.25” for “constitutive proteasome (1.25”
as §2

Compound | IC50 [2] [nM] | Selectivity LMP7 vs Beta5 [2] | IC50 [3] [nM] | selectivity for the LMP7 subunit of the immunoproteasome [1] [fold]
CC1=C(C(=O)N[C@H](C)C(=O)N[C@@H](Cc2c[nH]c3ccccc23)C(=O)N[C@@H](Cc2ccccc2)C(=O)[C@@]2(C)CO2)Cc2ccccc21 [PR-924] | – | – | – | 100
O=C(CCS(=O)(=O)c1ccccc1)N[C@@H](Cc1coc2ccccc12)B(O)O [Compound No. 4, [(1R)-1-[3-(benzenesulfonyl)propanoylamino]-2-(benzofuran-3-yl)ethyl]boronic acid] | < 50 | +++ (+++: 30 ≤ Selectivity < 50) | < 50 | –
CCc1cccc(C[C@H](NC(=O)CCCS(C)(=O)=O)B(O)O)c1 [Compound No. 21, [(1R)-2-(3-ethylphenyl)-1-(4-methylsulfonylbutanoylamino)ethyl]-boronic acid] | > 5000 | +++ (+++: 30 ≤ Selectivity < 50) | 50 to 500 | –

The next lines start with results.

IC50 [2] [nM] | Selectivity LMP7 vs Beta5 [2] | IC50 [3] [nM] | Compound | selectivity for the LMP7 subunit of the immunoproteasome [1] [fold]
500 to 5000 | +++++ (+++++: Selectivity ≥ 70) | < 50 | CCN(CC(=O)N[C@@H](Cc1ccc(C)cc1C)B(O)O)S(=O)(=O)c1ccc(C)cc1 [Compound No. 30, [(1R)-2-(2,4-dimethylphenyl)-1-[[2-[ethyl(p-tolylsulfonyl)amino]acetyl]-amino]ethyl]boronic acid] | –
500 to 5000 | +++++ (+++++: Selectivity ≥ 70) | < 50 | CN(C)C(=O)C(C(=O)N[C@@H](Cc1coc2ccccc12)B(O)O)c1ccccc1 (stereo partly drawn) [Compound No. 38, [(1R)-2-(benzofuran-3-yl)-1-[[3-(dimethylamino)-3-oxo-2-phenyl-propanoyl]amino]ethyl]boronic acid] | –
50 to 500 | ++++ (++++: 50 ≤ Selectivity < 70) | < 50 | CCN(CC(=O)N[C@@H](Cc1ccc(C)cc1C)B(O)O)S(=O)(=O)c1cccc(C)c1 [Compound No. 31, [(1R)-2-(2,4-dimethylphenyl)-1-[[2-[ethyl(m-tolylsulfonyl)amino]-acetyl]amino]ethyl]boronic acid] | –
